Among the data in ChEMBL document CHEMBL4483862, “Open-source discovery of chemical leads for next-generation chemoprotective antimalarials” (2018) are IC50 and IC90 values, retold here.

The test system of this test is Plasmodium berghei. The test is described as follows: Luciferase/luciferin-expressing antifolate-resistant parasites were used to infect a culture of HepG2 cells that were pre-incubated with compounds. Infected hepatocytes emit light due to the luciferase reaction. Assay results are presented as the percent inhibition of light emission compared to control. […]. To be noted: sporozoite; for IC90: read-out: LUCIFERASE INFECTION ASSAY - IC90. In kind it is functional.

Setting [1] is: read-out: LUCIFERASE INFECTION ASSAY - IC50.

Molecules are shown by their SMILES.

With `O=C1C=CC(=O)N1c1ccc(Cl)cc1`, the IC90 is over 15.9 µM. In addition, the IC50 (FFLUC_HILL_SLOPE 21.9, FFLUC_R_SQUARED 0.305, PBLUC_HILL_SLOPE 2.09, PBLUC_R_SQUARED 0.529, read-out: LUCIFERASE INFECTION ASSAY - IC50) came out at 12.2 µM.
Take `COc1cc2c(cc1NC(=O)C(C)N1CCC(C(N)=O)CC1)oc1ccccc12` (configuration not stated): the IC90 is over 10 µM. In addition, the half-maximal inhibitory concentration (IC50) (PBLUC_HILL_SLOPE 1.06, PBLUC_R_SQUARED 0.647, read-out: LUCIFERASE INFECTION ASSAY - IC50) stood at 1.32 µM.
As for `Cc1cc(-c2ccccc2)[s+]c(-c2ccccc2)c1`, the IC90 is over 10 µM. In addition, the half-maximal inhibitory concentration (IC50) (FFLUC_HILL_SLOPE 1.28, FFLUC_R_SQUARED 0.852, PBLUC_HILL_SLOPE 0.191, PBLUC_R_SQUARED 0.106, read-out: LUCIFERASE INFECTION ASSAY - IC50) is over 10 µM.
As for `O=C(NCc1cn2ccccc2n1)c1cccc(S(=O)(=O)N2CCc3ccccc3C2)c1`, the IC90 is over 10 µM. The concentration for half-maximal inhibition (IC50) under setting [1] is over 10 µM.
As to `COc1cc(OC)cc(C(=O)Nc2nc3ccc(C)cn3c2C(=O)NC2CCCCC2)c1`, the IC90 amounted to 1.03 µM. Besides, the concentration for half-maximal inhibition (IC50) (HEPG2TOX_HILL_SLOPE 1.81, HEPG2TOX_R_SQUARED 0.745, PBLUC_HILL_SLOPE 12.8, PBLUC_R_SQUARED 0.53, read-out: LUCIFERASE INFECTION ASSAY - IC50) worked out at 0.872 µM.
As for `Cc1cc2ncc(-c3ccnc(SCC(=O)C(C)(C)C)n3)c(C)n2n1`, the 90% effect concentration (IC90) is over 9.28 µM. Besides, the IC50 under setting [1] was over 9.28 µM.
As for `Cc1nn2c(=O)c(Cc3ccccc3)c(C)[nH]c2c1-c1ccc(F)cc1`, the IC90 is 1.3 µM. The IC50 (HEPG2TOX_HILL_SLOPE 0.716, HEPG2TOX_R_SQUARED 0.984, PBLUC_HILL_SLOPE 2.69, PBLUC_R_SQUARED 0.765, read-out: LUCIFERASE INFECTION ASSAY - IC50) turned out to be 0.576 µM.
Regarding `CNS(=O)(=O)c1cccc(C(=O)Nc2ccc(Cl)c(C(F)(F)F)c2)c1`, the 90% effect concentration (IC90) is over 10 µM. In addition, the concentration for half-maximal inhibition (IC50) (HEPG2TOX_HILL_SLOPE 0.613, HEPG2TOX_R_SQUARED 0.555, PBLUC_HILL_SLOPE 3.22, PBLUC_R_SQUARED 0.568, read-out: LUCIFERASE INFECTION ASSAY - IC50) came out at 7.21 µM.
`CC(Sc1nnc(-c2ccc(C(C)(C)C)cc2)o1)C(=O)NCc1ccccc1Cl` (configuration not stated): the IC90 was over 10 µM. In addition, the IC50 (PBLUC_HILL_SLOPE 1.93, PBLUC_R_SQUARED 0.876, read-out: LUCIFERASE INFECTION ASSAY - IC50) was determined as 4.14 µM.
In the case of `O=C1CN(C(=O)CNC(c2ccccc2)c2cccs2)c2ccccc2N1` (configuration not stated), the IC90 is over 10 µM. Besides, under setting [1], the half-maximal inhibitory concentration (IC50) was over 10 µM.
Take `CN(C)c1cccc(-c2cnc3cnc(-c4cnn(Cc5ccccc5)c4)cn23)c1`: the 90% effect concentration (IC90) was over 8.37 µM. Besides, under setting [1], the 50% inhibitory concentration (IC50) was over 8.37 µM.
In the case of `OC(c1ccc(Cl)cc1)c1nnc(Nc2cc(C(F)(F)F)ccc2F)s1` (configuration not stated), the IC90 was over 10 µM. In addition, the IC50 under setting [1] was over 10 µM.
On to `Cc1cccc(C)c1OCCOC(=O)c1[nH]nc2ccccc12`, for which the IC90 is over 10 µM. The half-inhibitory concentration (IC50) under setting [1] was over 10 µM.
Consider `CC(C)C(=O)NC1CCCC(C)C1C` (configuration not stated), for which the 90% effect concentration (IC90) was over 2 µM. Also, the IC50 under setting [1] was over 2 µM.
For `COc1cc(OC)c2[nH]c(C(=O)Nc3ccc(-n4cccn4)cc3)cc2c1`, the 90% effect concentration (IC90) is over 10 µM. In addition, for the setting “PBLUC_HILL_SLOPE 2.78, PBLUC_R_SQUARED 0.238, read-out: LUCIFERASE INFECTION ASSAY - IC50”, the IC50 was determined as 6.45 µM.
On to `CCCn1c(N)c(N2CCCCC2)c(=O)n(Cc2nc(N)nc(Nc3ccccc3)n2)c1=O`, for which the IC90 came out at 3.51 µM. In addition, under setting [1], the concentration for half-maximal inhibition (IC50) was determined as 2.17 µM.
On to `Cc1ccc(-c2noc(CCC(=O)N3CCN(C/C=C/c4ccccc4)CC3)n2)cc1`, for which the IC90 is over 10 µM. Further, the IC50 (HEPG2TOX_HILL_SLOPE 6.22, HEPG2TOX_R_SQUARED 0.551, PBLUC_HILL_SLOPE 3.17, PBLUC_R_SQUARED 0.265, read-out: LUCIFERASE INFECTION ASSAY - IC50) was found to be 5.07 µM.
For `c1ccc(-n2ncc3c(N4CCCC4c4ccc5c(c4)OCCO5)ncnc32)cc1` (configuration not stated), the 90% effect concentration (IC90) is over 10 µM. For the same molecule, the IC50 (HEPG2TOX_HILL_SLOPE 2.6, HEPG2TOX_R_SQUARED 0.193, PBLUC_HILL_SLOPE 3.44, PBLUC_R_SQUARED 0.735, read-out: LUCIFERASE INFECTION ASSAY - IC50) is 7.29 µM.
For `COc1cccc(-c2cc3c(Nc4ccc(Oc5ccccc5)cc4)nccc3[nH]2)c1`, the 90% effect concentration (IC90) was 4 µM. Also, the IC50 (HEPG2TOX_HILL_SLOPE 11.8, HEPG2TOX_R_SQUARED 0.973, PBLUC_HILL_SLOPE 14.2, PBLUC_R_SQUARED 0.35, read-out: LUCIFERASE INFECTION ASSAY - IC50) was 3.43 µM.
In the case of `CCOC(=O)c1sc2nc(C)nc(N3CC=C(c4c[nH]c5ncccc45)CC3)c2c1C`, the IC90 is over 10 µM. Moreover, the IC50 under setting [1] was over 10 µM.
For the molecule `OCc1ccc(-c2cnc3cnc(-c4ccc(Cl)cc4)cn23)cc1`, the concentration for an effect of 90% (IC90) is over 9.83 µM. Further, the half-inhibitory concentration (IC50) under setting [1] is over 9.83 µM.
In the case of `CCOC(=O)/C=C/C(=O)OCC(=O)c1ccc(C2CCCCC2)cc1`, the concentration for an effect of 90% (IC90) is over 10 µM. For the same molecule, for the setting “HEPG2TOX_HILL_SLOPE 7.18, HEPG2TOX_R_SQUARED 0.791, read-out: LUCIFERASE INFECTION ASSAY - IC50”, the half-inhibitory concentration (IC50) was over 10 µM.
Consider `CC(Sc1nnc2ccc(C(F)(F)F)cn12)C(=O)NCC1CCCO1` (configuration not stated), for which the 90% effect concentration (IC90) was over 10 µM. The half-inhibitory concentration (IC50) under setting [1] is over 10 µM.
As to `COc1cccc(-c2nccc3n[nH]c(-c4ccc(OC)cc4C)c23)c1`, the IC90 is over 10 µM. In addition, the half-maximal inhibitory concentration (IC50) under setting [1] was 4.5 µM.
On the same counts, the results for `CNc1nc2cnc(Nc3ccc(SC)cc3)cc2n1Cc1ccc(OC)c(OC)c1` are over 10 µM and over 10 µM.
For the molecule `COc1ccc(Cl)cc1NS(=O)(=O)c1cccc(C(=O)OC(C)C(=O)c2cc(C)n(-c3ccccc3)c2C)c1` (configuration not stated), the IC90 is over 10 µM. Moreover, the half-maximal inhibitory concentration (IC50) under setting [1] was over 10 µM.
Consider `Nc1c(C(=O)c2ccc3c(c2)NC(=O)CO3)sc2c1c(=O)[nH]c(=O)n2Cc1ccccc1`, for which the IC90 was over 10 µM. In addition, the IC50 (HEPG2TOX_HILL_SLOPE 15, HEPG2TOX_R_SQUARED 0.948, PBLUC_HILL_SLOPE 0.935, PBLUC_R_SQUARED 0.804, read-out: LUCIFERASE INFECTION ASSAY - IC50) stood at 1.58 µM.
For the molecule `CC(NC(=O)COC(=O)CSc1ccc(Br)c2cccc(Cl)c12)c1ccccc1` (configuration not stated), the concentration for an effect of 90% (IC90) is over 10 µM. Also, the IC50 (FFLUC_HILL_SLOPE 11.2, FFLUC_R_SQUARED 0.0748, PBLUC_HILL_SLOPE 1.42, PBLUC_R_SQUARED 0.0165, read-out: LUCIFERASE INFECTION ASSAY - IC50) is over 10 µM.
Regarding `Cc1cc(C(=O)NC(C)Cc2ccc(Br)cc2)on1` (configuration not stated), the concentration for an effect of 90% (IC90) was over 10 µM. Besides, under setting [1], the IC50 is over 10 µM.
As to `Clc1ccc2c(Sc3nnc4ccccn34)ccnc2c1`, the IC90 was over 10 µM. Under setting [1], the half-maximal inhibitory concentration (IC50) is over 10 µM.
`CSc1nc(N/C=C2/C(=O)c3ccccc3N(C)S2(=O)=O)nc(N(C)C)n1`: the IC90 is over 8.12 µM. For the same molecule, the half-inhibitory concentration (IC50) under setting [1] was over 8.12 µM.
As for `CC(C)n1ncc2cc(NC(=O)C3=Cc4ccccc4OC3)cnc21`, the 90% effect concentration (IC90) is over 10 µM. In addition, the IC50 (PBLUC_HILL_SLOPE 12, PBLUC_R_SQUARED 0.534, read-out: LUCIFERASE INFECTION ASSAY - IC50) is 9.28 µM.
Consider `CC(=O)c1sc(SCCS(=O)(=O)c2ccc(C)cc2)c2c1CC(C)(C)CC2=O`, for which the 90% effect concentration (IC90) is over 7.56 µM. Under setting [1], the IC50 is over 7.56 µM.
`CN(C)c1ccc(CNc2ncnc3ccccc23)cc1`: the IC90 was over 10 µM. In addition, the IC50 (HEPG2TOX_HILL_SLOPE 1.21, HEPG2TOX_R_SQUARED 0.974, PBLUC_HILL_SLOPE 1.4, PBLUC_R_SQUARED 0.594, read-out: LUCIFERASE INFECTION ASSAY - IC50) was 4.35 µM.
As to `Cc1sc2nc(CSc3ccccc3)nc(N3CCN(CC(=O)NC4CC4)CC3)c2c1C`, the 90% effect concentration (IC90) was over 10 µM. For the setting “PBLUC_HILL_SLOPE 2.61, PBLUC_R_SQUARED 0.67, read-out: LUCIFERASE INFECTION ASSAY - IC50”, the IC50 turned out to be 5.13 µM.
Turning to `OCc1ccc(-c2cnc3ccc(-c4cccc(F)c4)nn23)cc1`, the concentration for an effect of 90% (IC90) amounted to 8.2 µM. In addition, the IC50 (FFLUC_HILL_SLOPE 16.8, FFLUC_R_SQUARED 0.417, HEPG2TOX_HILL_SLOPE 9.34, HEPG2TOX_R_SQUARED 0.811, PBLUC_HILL_SLOPE 2.28, PBLUC_R_SQUARED 0.536, read-out: LUCIFERASE INFECTION ASSAY - IC50) stood at 3.13 µM.
Consider `CN(C)c1ccc(/C=N/NC(=O)c2ccccc2N)c(Cl)c1`, for which the 90% effect concentration (IC90) is over 10.4 µM. The IC50 under setting [1] is over 10.4 µM.
As to `COc1ccc(-c2cc(-c3cc(C)ccc3O)c3c(n2)-c2ccccc2C3=O)cc1`, the IC90 is over 10 µM. Besides, the IC50 (PBLUC_HILL_SLOPE 6.66, 3.32, PBLUC_R_SQUARED 0.385, 0.180, read-out: LUCIFERASE INFECTION ASSAY - IC50) came to 9.15 µM.
Consider `CC(NS(=O)(=O)c1ccc(-n2ncc(Cl)c(Cl)c2=O)cc1)c1ccc2ccccc2c1` (configuration not stated), for which the concentration for an effect of 90% (IC90) is 3.82 µM. The IC50 (FFLUC_HILL_SLOPE 0.605, FFLUC_R_SQUARED 0.525, HEPG2TOX_HILL_SLOPE 11.4, HEPG2TOX_R_SQUARED 0.983, PBLUC_HILL_SLOPE 12.9, PBLUC_R_SQUARED 0.58, read-out: LUCIFERASE INFECTION ASSAY - IC50) turned out to be 3.22 µM.
For `O=C(Nc1ncc(Cc2ccccc2Br)s1)c1ccc2nc[nH]c2c1`, the IC90 is over 10 µM. Also, for the setting “HEPG2TOX_HILL_SLOPE 2.12, HEPG2TOX_R_SQUARED 0.698, PBLUC_HILL_SLOPE 2.32, PBLUC_R_SQUARED 0.476, read-out: LUCIFERASE INFECTION ASSAY - IC50”, the 50% inhibitory concentration (IC50) was found to be 4.08 µM.
Turning to `CSc1ncc2c(n1)CC(C)(C)C/C2=N\OC(=O)c1cccc(C(F)(F)F)c1`, the concentration for an effect of 90% (IC90) was over 8.06 µM. Moreover, under setting [1], the concentration for half-maximal inhibition (IC50) is over 8.06 µM.
